Source: publication PMC9226319, “Peripherally restricted transthyretin-based delivery system for probes and therapeutics avoiding opioid-related side effects” (Nature Communications, 2022)
Where “and” joins values, the source holds several entries; their conditions need not be identical. Equal entries are not always repeated. Entries after “also recorded” stand apart in the source; their conditions may differ. Where two headings read alike, the source gives them in different places.

Assays:
[1] = Serum stability assay of AG10-L2-Nal, mouse serum; assay type: in vitro ADME; conditions: 100 µM
Description: (§1) AG10-L2-Nal (100 μM) was incubated in sera, and the concentration remaining in respective media was determined at 0 and 48 h using HPLC. Bar graphs represent the mean of % compound remaining ± s.d. […] The plasma, brain tissue, and CSF were collected at 30 min after dosing. The ratio of the brain (ng/g) versus plasma concentration (ng/mL) is expressed as the percentage brain to plasma ratio. The ratio of the CSF (ng/mL) versus plasma concentration (ng/mL) is expressed as the percentage CSF to plasma ratio. Bar graphs show the respective mean (±s.d.) (n = 3 for each group). […] The concentration of the test compounds in plasma was determined at different time points and expressed as means ± s.d. of three biological replicates. Source data are provided as a Source Data file. […]
(§2) (Taiwan). The experimental procedure was performed as reported12. […]
(§3) Serum stability assay of AG10-L2-Nal. […] 100 μL samples were analyzed at 0 h, 24 h, and 48 h time intervals. […] The supernatant was analyzed using Waters™ XBridge C18 column (4.6x250 mm, 5μm) on Waters e2695 separations module HPLC system connected to a Waters 2998 photodiode array detector operating between the UV ranges of 200-400 nm. […]

[2] = Long-term stability assay of AG10-L2-Nal in PBS buffer; assay type: physicochemical; conditions: 100 µM, 37 °C, analysed weekly for four weeks
[3] = rat; for plasma concentration: individual animals
[4] = target: T1, kappa opioid receptor (rat) (Rattus norvegicus, UniProt P34975); assay: Rat kappa-opioid receptor (agonist radioligand [3H] U 69593) binding assay; conditions: for % Inhibition of Control Specific Binding: kappa-opioid receptor binding, replicates 1st/2nd
T1 construct: Eurofins Cerep (France)

[5] = test system: male Sprague-Dawley rats; conditions: rat, in vivo
[6] = test system: male Sprague-Dawley rats; assay: Gastrointestinal (GI) transit (charcoal meal) assays; assay type: in vivo, rat; conditions: rat, in vivo
[7] = in vivo; conditions: male, Sprague Dawley, rat, iv, percentage CSF to plasma ratio
[8] = Serum stability assay of AG10-L2-Nal, rat serum; assay type: in vitro ADME; conditions: 100 µM
Description: as §1, §2, §3

[9] = in vitro; conditions: human, % Cell viability, replicates
[10] = target: human mu-opioid receptors (Homo sapiens, UniProt P35372); assay: biochemical; assay type: biochemical; set-up: host or cells: CHO-K1 (Chinese hamster ovary), membrane preparation
human mu-opioid receptors, sequence (P35372 whole entry): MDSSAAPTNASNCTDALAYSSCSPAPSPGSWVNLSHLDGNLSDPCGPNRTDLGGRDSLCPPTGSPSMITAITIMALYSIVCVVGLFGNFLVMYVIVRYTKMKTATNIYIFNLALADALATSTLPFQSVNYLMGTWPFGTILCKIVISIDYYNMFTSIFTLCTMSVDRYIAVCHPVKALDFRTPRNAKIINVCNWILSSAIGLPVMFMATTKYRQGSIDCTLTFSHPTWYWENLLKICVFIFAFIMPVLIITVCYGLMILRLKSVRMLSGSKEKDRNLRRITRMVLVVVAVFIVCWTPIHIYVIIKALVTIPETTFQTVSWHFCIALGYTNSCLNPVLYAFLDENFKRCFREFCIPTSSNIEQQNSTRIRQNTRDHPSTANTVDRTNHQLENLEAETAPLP

T1 sequence (P34975 whole entry): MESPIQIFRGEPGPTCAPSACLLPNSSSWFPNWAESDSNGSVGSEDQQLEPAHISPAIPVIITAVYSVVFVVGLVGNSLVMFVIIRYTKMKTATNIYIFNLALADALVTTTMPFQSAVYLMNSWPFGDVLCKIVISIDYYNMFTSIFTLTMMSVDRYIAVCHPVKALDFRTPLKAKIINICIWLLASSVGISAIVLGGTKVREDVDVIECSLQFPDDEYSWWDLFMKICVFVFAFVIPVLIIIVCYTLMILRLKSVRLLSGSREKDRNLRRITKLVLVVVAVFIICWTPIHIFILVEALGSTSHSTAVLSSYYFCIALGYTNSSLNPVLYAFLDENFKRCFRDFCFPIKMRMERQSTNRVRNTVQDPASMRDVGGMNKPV

## C=CCN1CC[C@]23c4c5ccc(O)c4O[C@H]2[C@@H](OCc2cn(CCNCCCCCCOc4cc(OCCCc6c(C)n[nH]c6C)cc(C(=O)O)c4)nn2)CC[C@@]3(O)[C@H]1C5 [AG10-L2-Nal]
[1]; 0 h, replicates
  % compound remaining in mouse serum: 98.29% and 100.51% and 101.20%
[1]; 37 °C, 48 h, table replicates
  % compound remaining in mouse serum: 100% and 99.98% and 100.20% and 102.73%
[2]
  chemical stability in PBS buffer: stable in buffer for a least one month; also recorded: chemically stable in phosphate buffer saline for at least one month at 37 °C
[3]; IV 4.84 µmol/kg
  fold higher AUCinf than naloxegol: ~23 fold
  fold higher AUCinf than naloxone: ~12 fold
  fold increase in half-life compared to naloxegol: 3.5 fold
  fold increase in half-life compared to naloxone: 7 fold
[3]; IV 4.84 µmol/kg, 0.03 h
  plasma concentration: 57263.9 nM and 57506.1 nM
[3]; IV 4.84 µmol/kg, 0.5 h
  plasma concentration: 2941.9 nM and 1319.6 nM and 2239.7 nM
[3]; IV 4.84 µmol/kg, 1 h
  plasma concentration: 296.6 nM and 441.9 nM
[3]; IV 4.84 µmol/kg, 2 h
  plasma concentration: 155 nM and 181.6 nM
[3]; IV 4.84 µmol/kg, 4 h
  plasma concentration: 92.9 nM and 28.6 nM and 125.9 nM
[3]; IV 4.84 µmol/kg, 6 h
  plasma concentration: 75.2 nM and 37 nM and 51.6 nM
[3]; IV 4.84 µmol/kg, 8 h
  plasma concentration: 23 nM and 56.2 nM and 25.7 nM
[3]; IV 4.84 µmol/kg, 12 h
  plasma concentration: 14.4 nM and 12 nM
[3]; IV 4.84 µmol/kg, 24 h
  plasma concentration: 3.4 nM and 7.2 nM and 2.7 nM
[3]; single IV bolus 4.84 µmol/kg
  k: 0.12 ± 0.02 h⁻¹
[4]; [3H] U 69593 displacement, read-out: binding affinity to kappa-opioid receptor (Ki)
  Ki: 0.12 nM
[4]; 1.0E-07 M
  % Inhibition of Control Specific Binding: 98.2% and 98.6%
[4]; 1.0E-08 M
  % Inhibition of Control Specific Binding: 96.0%
[4]; 1.0E-09 M
  % Inhibition of Control Specific Binding: 83.2% and 82.8%
[4]; 1.0E-10 M
  % Inhibition of Control Specific Binding: 41.5% and 28.1%
[4]; 5.0E-08 M
  % Inhibition of Control Specific Binding: 98.3% and 97.6%
[5]; male, Sprague-Dawley
  plasma concentration: 7600 ± 500 nM
[5]
  Hot plate latency: 60 s
  hot plate latency: significant analgesia
  reversal of morphine-induced analgesia in the presence of AG10: no reversal of analgesia
[5]; iv
  hot plate latency: 60 s
[6]
  GI transit 2.5h as % of saline group: 45.3% and 46.0% and 49.8% and 55.5% and 53.6% and 48.3%
  reversal of OIC in the presence of AG10: no improvement in the OIC
[6]; sc
  GI transit as % of vehicle group, compound alone: 95.27% and 87.87% and 102.14% and 105.69% and 102.69%
[7]
  Kp: 0.01
[8]; 0 h, replicates
  % compound remaining in rat serum: 101.22% and 98.78% and 100.03%
[8]; 37 °C, 48 h, table replicates
  % compound remaining in rat serum: 100% and 99.06% and 98.97% and 99.95%
[9]; 10 μM
  viability at 72 h, 10 µM: 102%
[9]; 100 μM
  viability at 72 h, 100 µM: 112%
[10]
  IC50: 7.5 nM
  Kb: 0.81 nM
  agonism relative to DAMGO: 2%
  fold increase of morphine EC50: 950 fold
  fold more potent than naloxegol in functional assay: 10 fold
